Reference: publication PMC7155171, “Probing the Open Global Health Chemical Diversity Library for Multistage-Active Starting Points for Next-Generation Antimalarials” (ACS Infectious Diseases, 2020)
Like-named read-outs stand apart in the source and are kept apart here.

Key:
P. falciparum Dd2 = experiment: SYBR green I asexual blood stage proliferation assay (96 h); format: cell-based, Plasmodium falciparum; settings: for IC50 / Emax: Plasmodium falciparum
[1] = tested on: P. falciparum Dd2 (PfLuc) line expressing firefly luciferase, asexual blood stage; experiment: microbe, parasite or virus in culture; format: cell-based, Plasmodium falciparum; settings: Plasmodium falciparum
[2] = DD2, Sybr Green I, 11-pt dose response, 96hr, read-out: CDD P. falciparum Sybr Green I ABS 11-pt Reconfirmation Dose Response (96hr): IC50
[3] = DD2, Sybr Green I, 11-pt dose response, 96hr, read-out: CDD P. falciparum Sybr Green I ABS 11-pt Reconfirmation Dose Response (96hr): Maximum inhibition (%)
[4] = DD2, read-out: CDD P. falciparum Luciferase ABS 11-pt Reconfirmation Dose Response (48hr): IC50 (μM), 11-pt dose response, 48hr
[5] = DD2, 8-pt dose response, 96hr, read-out: CDD P. falciparum Luciferase ABS 8-pt Reconfirmation Dose Response (96hr): IC50
[6] = DD2, 11-pt dose response, 48hr, read-out: CDD P. falciparum Luciferase ABS 11-pt Reconfirmation Dose Response (48hr): Maximum inhibition (%)
[7] = DD2, 11-pt dose response, 96hr, read-out: CDD P. falciparum Luciferase ABS 11-pt Reconfirmation Dose Response (96hr): IC50
[8] = DD2, 11-pt dose response, 96hr, read-out: CDD P. falciparum Luciferase ABS 11-pt Reconfirmation Dose Response (96hr): Maximum inhibition (%)
[9] = DD2, 8-pt dose response, 96hr, read-out: CDD P. falciparum Luciferase ABS 8-pt Reconfirmation Dose Response (96hr): Maximum inhibition (%)
[10] = DD2, read-out: P. falciparum Luciferase ABS 11-pt Reconfirmation Dose Response (48hr): IC50, 11-pt dose response, 48hr
[11] = DD2, 8-pt dose response, 96hr, read-out: P. falciparum Luciferase ABS 8-pt Reconfirmation Dose Response (96hr): IC50
[12] = DD2, 8-pt dose response, 96hr, read-out: P. falciparum Luciferase ABS 8-pt Reconfirmation Dose Response (96hr): Maximum inhibition (%)
[13] = DD2, 11-pt dose response, 48hr, read-out: P. falciparum Luciferase ABS 11-pt Reconfirmation Dose Response (48hr): Maximum inhibition (%)
[14] = DD2, 11-pt dose response, 96hr, read-out: P. falciparum Luciferase ABS 11-pt Reconfirmation Dose Response (96hr): IC50
[15] = DD2, 11-pt dose response, 96hr, read-out: P. falciparum Luciferase ABS 11-pt Reconfirmation Dose Response (96hr): Maximum inhibition (%)

Row | Compound | IC50 (P. falciparum Dd2; [2]) | Emax (P. falciparum Dd2; [3]) | IC50 [1, 4] | IC50 [1, 5] | Emax [1, 6] | IC50 [1, 7] | Emax [1, 8] | Emax [1, 9] | IC50 [1, 11] | Emax [1, 12] | other results
1 | COc1ccccc1C1(NCc2c(C)nc3c(C)cccn23)CCCC1 [DDD01057239] | > 1390 nM | 68.9% | 4.35 µM | 0.71 µM | 60.6% | 1.55 µM | 92% | – | – | – | –
2 | Cc1ccc(C)c(OCCNC(=O)[C@@H]2CCCCN2)c1 [DDD01252936] | 7600 nM | – | 6.36 µM | 0.37 µM | 74.3% | 1.17 µM | 87.5% | 89.3% | – | – | –
3 | CCC(C)(C)n1nnnc1C(c1cccs1)N1CCc2ccccc2C1 (centres unmarked) [DDD01056726] | 4960 nM | 79.3% | 3.18 µM | 0.56 µM | 71.7% | 0.803 µM | 93.7% | 91.1% | – | – | –
4 | COc1cccc(CNCc2ccccc2Cl)c1O [DDD01038247] | 5220 nM | 87.5% | 7.91 µM | 0.9 µM | 79.1% | 1.97 µM | 96.2% | 89.5% | – | – | –
5 | CCN(CC)CCNS(=O)(=O)c1cccc(CSC)c1 [DDD01038216] | 7550 nM | 73.7% | 10.2 µM | 0.58 µM | 58.8% | 2.99 µM | 89.5% | 87.3% | – | – | –
6 | CCCn1nccc1C(=O)N1CCN(C2CCc3ccccc3C2)CC1 (centres unmarked) [DDD01251134, CCCn1nccc1C(=O)N1CCN(CC1)C1CCc2ccccc2C1] | – | – | – | – | – | – | – | – | – | – | CDD P. falciparum Sybr Green I ABS Dd2 Dose Response: Maximum measured (%) (P. falciparum Dd2; Dd2, 96 h): 56.3%; IC50 (P. falciparum Dd2; DD2, 96 h, read-out: CDD P. falciparum Sybr Green I ABS Dd2 Dose Response: IC50): > 12500 nM; IC50 ([1]; DD2, read-out: CDD P. falciparum Luc 11pt dose response (96hr, n=2): IC50 (μM), 96hr, 11-point, n=2): 0.224 µM; IC50 ([1]; DD2, read-out: CDD P. falciparum Luciferase 11pt dose response (48hr, n=2): IC50 (μM), 48hr, 11-point, n=2): 0.205 µM; Emax ([1]; DD2, 48hr, 11-point, read-out: CDD P. falciparum Luciferase ABS 11-pt Reconfirmation Dose Response (48hr): Maximum inhibition (%)): 95.3%; Emax ([1]; DD2, 96hr, 11-point, read-out: CDD P. falciparum Luciferase ABS 11-pt Reconfirmation Dose Response (96hr): Maximum inhibition (%)): 100%
7 | CN1CC[C@H](N(Cc2ccccc2)Cc2ccccc2)C[C@H](O)C1 [DDD01026217] | 7310 nM | 73.4% | > 4.16 µM | 0.91 µM | 69.3% | > 4.16 µM | 93.7% | 80.7% | – | – | –
8 | CCN(CC)CCN(C)c1nc(-c2ccc(Cl)cc2)nc2c1CNC2 [DDD01247796] | – | – | – | – | – | – | – | – | 1.5 µM | 94.9% | IC50 (P. falciparum Dd2; DD2, 11-pt dose response, 96hr, read-out: P. falciparum Sybr Green I ABS 11-pt Reconfirmation Dose Response (96hr): IC50): 4270 nM; Emax (P. falciparum Dd2; DD2, 11-pt dose response, 96hr, read-out: P. falciparum Sybr Green I ABS 11-pt Reconfirmation Dose Response (96hr): Maximum inhibition (%)): 89.9%; IC50 [1, 10]: 3.45 µM; Emax [1, 13]: 74.2%; IC50 [1, 14]: 2.79 µM; Emax [1, 15]: 99.3%
9 | CN1CCC(O)(CNCc2ccc(F)c(C(F)(F)F)c2)CC1 [DDD01065665] | 3170 nM | 86.1% | > 12.5 µM | 0.71 µM | 33.7% | 4.45 µM | 88.8% | 90.5% | – | – | –
10 | c1ccn2c(C3CCCN(c4ncnc5c4CCNC5)C3)nnc2c1 (centres unmarked) [DDD01252518] | > 12500 nM | 42% | > 1.39 µM | 0.26 µM | 64.8% | 0.449 µM | 97.6% | 90.8% | – | – | –
11 | CCC[C@@H]1C[C@@H](C(=O)N[C@@H]([C@H]2O[C@H](SC)[C@H](O)[C@@H](O)[C@H]2O)[C@H](C)Cl)N(C)C1 [clindamycin, reference compound] | – | – | – | – | – | – | – | – | – | – | IC50 (P. falciparum Dd2; 96 h, Dd2, read-out: 96 h SYBR green ABS IC50): > 10000 nM
12 | Cc1cc(C)c2cc(CNC3CCCCC3)c3nn(C)c(=O)n3c2c1 [DDD01060652] | – | – | – | – | – | – | – | – | 1.15 µM | 88.2% | –
13 | Cc1cccnc1CC(C)NC1Cc2ccccc2C1 (centres unmarked) [DDD01255733] | – | – | – | – | – | – | – | – | 1.76 µM | 81.8% | –
14 | Fc1ccccc1Sc1ccccc1CNC1=NCCN1 [DDD01035543] | – | – | – | – | – | – | – | – | 1.57 µM | 83.6% | –
15 | COc1cccc([C@H]2CN(C(C)=O)[C@@H]3CCN(Cc4ccsc4)C[C@H]23)c1 [DDD01061089] | – | – | – | – | – | – | – | – | 1.31 µM | 82.2% | –
16 | COc1cccc(OC)c1CN1CC(=O)N(c2ccc(C)cc2)CC1C (centres unmarked) [DDD01252418] | – | – | – | – | – | – | – | – | 1.26 µM | 89.5% | IC50 [1, 10]: 3.67 µM; IC50 [1, 14]: 1.8 µM; Emax [1, 15]: 93.6%
17 | CC(C)=CCN1CCC2(CC1)c1ccccc1[C@@H](N1CCSCC1)[C@@H]2O [DDD01245335] | – | – | – | – | – | – | – | – | 1.31 µM | 82.4% | –
18 | CCN(CC1CN(Cc2nc(C3CC3)no2)CCO1)c1cccnn1 (centres unmarked) [DDD01070232] | – | – | – | – | – | – | – | – | 1.86 µM | 79.6% | –
19 | Cn1cc(CN2CCCC(CCc3ccc(F)cc3)C2)cn1 (centres unmarked) [DDD01246631] | – | – | – | – | – | – | – | – | 1.75 µM | 84.6% | –
20 | Cc1nc(-c2cc(Cl)c3c(c2)CC(CN)O3)c[nH]1 (centres unmarked) [DDD01252814] | – | – | – | – | – | – | – | – | 2.18 µM | 88.7% | –
21 | Cc1cnn(CCCNCc2csc(COc3ccccc3)n2)c1 [DDD01077297] | – | – | – | – | – | – | – | – | 1.25 µM | 85.8% | IC50 [1, 10]: 7.24 µM; Emax [1, 13]: 63.7%; IC50 [1, 14]: 1.2 µM; Emax [1, 15]: 86.7%
